As usually defined, the IC50 is the concentration at which inhibition is half-maximal. Lower therefore signals higher potency.

These results are taken from patent US8901111B2, “Aryl-substituted heterocyclic urea modulators of fatty acid amide hydrolase” (Janssen Pharmaceutica NV, priority 2009, dated 2014).

Assay [1] deals with T1, rat FAAH (Rattus norvegicus, UniProt P97612).
T1 construct: expressed in transfected cells; crude homogenate
T1 sequence (P97612 1-579): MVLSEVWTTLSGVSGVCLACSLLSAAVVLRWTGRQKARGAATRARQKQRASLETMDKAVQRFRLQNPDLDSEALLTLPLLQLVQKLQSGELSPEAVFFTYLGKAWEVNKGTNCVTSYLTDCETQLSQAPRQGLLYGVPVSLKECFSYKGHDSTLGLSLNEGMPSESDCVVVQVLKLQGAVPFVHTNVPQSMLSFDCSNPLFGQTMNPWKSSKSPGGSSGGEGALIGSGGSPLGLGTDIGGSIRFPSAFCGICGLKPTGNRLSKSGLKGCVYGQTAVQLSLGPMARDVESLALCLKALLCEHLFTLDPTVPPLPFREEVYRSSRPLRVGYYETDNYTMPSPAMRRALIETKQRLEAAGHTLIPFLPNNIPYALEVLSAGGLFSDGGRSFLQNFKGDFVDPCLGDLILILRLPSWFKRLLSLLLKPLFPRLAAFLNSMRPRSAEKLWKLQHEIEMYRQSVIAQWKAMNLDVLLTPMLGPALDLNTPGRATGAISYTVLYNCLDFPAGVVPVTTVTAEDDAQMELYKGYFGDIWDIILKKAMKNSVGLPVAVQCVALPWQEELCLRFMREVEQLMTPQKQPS
The assay can be described thus: Assay Method 2: FAAH assay, 3H-anandamide hydrolysis in homogenate of cells transfected with rat FAAH. Particulars: cell homogenate, 3H-AEA 80 nM, 1 h at rt, average of results. Type of assay: biochemical. On the procedure:
A. Transfection of Cells with Rat FAAH
(§1) A 10-cm tissue culture dish with a confluent monolayer of SK-N-MC cells was split 2 days (d) prior to transfection. Using sterile technique, the media was removed and the cells were detached from the dish by the addition of trypsin. One fifth of the cells were then placed onto a new 10-cm dish. Cells were grown in a 37° C. incubator with 5% CO2 in Minimal Essential Media Eagle with 10% Fetal Bovine Serum. After 2 d, cells were approximately 80% confluent. These cells were removed from the dish with trypsin and pelleted in a clinical centrifuge. The pellet was re-suspended in 400 μL complete media and transferred to an electroporation cuvette with a 0.4 cm gap between the electrodes. Supercoiled rat FAAH cDNA (1 μg) was added to the cells and mixed. The voltage for the electroporation was set at 0.25 kV, and the capacitance was set at 960 μF. After electroporation, the cells were diluted into complete media (10 mL) and plated onto four 10-cm dishes. Because of the variability in the efficiency of electroporation, four different concentrations of cells were plated. The ratios used were 1:20, 1:10, and 1:5, with the remainder of the cells being added to the fourth dish. The cells were allowed to recover for 24 h before adding the selection media (complete media with 600 μg/mL G418). After 10 d, dishes were analyzed for surviving colonies of cells. Dishes with well-isolated colonies were used. Cells from individual colonies were isolated and tested.
(§2) T84 frozen cell pellets or transfected SK-N-MC cells (contents of 1×15 cm culture dishes) were homogenized in 50 mL of FAAH assay buffer (125 mM Tris, 1 mM EDTA, 0.2% Glycerol, 0.02% Triton X-100, 0.4 mM Hepes, pH 9). The assay mixture consisted of 50 μL of the cell homogenate, 10 μL of the test compound, and 40 μL of anandamide [1-^3H-ethanolamine] (^3H-AEA, Perkin-Elmer, 10.3 Ci/mmol), which was added last, for a final tracer concentration of 80 nM. The reaction mixture was incubated at rt for 1 h. During the incubation, 96-well Multiscreen filter plates (catalog number MAFCNOB50; Millipore, Bedford, Mass., USA) were loaded with 25 μL of activated charcoal (Multiscreen column loader, catalog number MACL09625, Millipore) and washed once with 100 μL of MeOH. Also during the incubation, 96-well DYNEX MicroLite plates (catalog number NL510410) were loaded with 100 μL of MicroScint40 (catalog number 6013641, Packard Bioscience, Meriden, Conn., USA). After the 1 h incubation, 60 μL of the reaction mixture were transferred to the charcoal plates, which were then assembled on top of the DYNEX plates using Centrifuge Alignment Frames (catalog number MACF09604, Millipore). The unbound labeled ethanolamine was centrifuged through to the bottom plate (5 min at 2000 rpm), which was preloaded with the scintillant, as described above. The plates were sealed and left at rt for 1 h before counting on a Hewlett Packard TopCount.
(§3) Results for compounds tested in these assays are summarized in Table 1, as an average of results obtained. Compounds were tested in the free base or trifluoroacetic acid salt form. Compounds tested in the trifluoroacetic acid salt form are indicated as such by a “*” designation after the example number. Where activity is shown as greater than (>) a particular value, the value is the solubility limit of the compound in the assay medium or the highest concentration tested in the assay.

In assay [2] the target is T2, FAAH (Homo sapiens, UniProt O00519).
T2 sequence (O00519 1-579): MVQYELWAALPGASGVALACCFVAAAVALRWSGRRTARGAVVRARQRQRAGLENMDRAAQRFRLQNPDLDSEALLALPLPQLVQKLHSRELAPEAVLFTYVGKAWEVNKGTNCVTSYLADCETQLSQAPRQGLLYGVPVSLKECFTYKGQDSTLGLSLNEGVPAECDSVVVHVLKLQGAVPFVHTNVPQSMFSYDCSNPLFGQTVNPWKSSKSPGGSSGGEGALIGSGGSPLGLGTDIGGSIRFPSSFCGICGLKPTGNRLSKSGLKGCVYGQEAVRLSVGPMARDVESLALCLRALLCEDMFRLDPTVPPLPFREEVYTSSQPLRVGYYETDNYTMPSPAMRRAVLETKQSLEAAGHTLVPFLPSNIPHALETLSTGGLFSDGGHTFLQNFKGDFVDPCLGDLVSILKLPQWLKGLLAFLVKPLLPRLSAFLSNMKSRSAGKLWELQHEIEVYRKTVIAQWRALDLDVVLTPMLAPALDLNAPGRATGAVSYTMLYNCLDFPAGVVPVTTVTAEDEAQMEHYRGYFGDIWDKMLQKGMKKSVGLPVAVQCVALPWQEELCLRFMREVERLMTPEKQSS
The assay can be described thus: Assay Method 1: FAAH assay, 3H-anandamide hydrolysis in homogenate of cells transfected with human FAAH. The format is biochemical. Details: expressed in transfected cells; crude homogenate (T84 cell pellets named as alternative). Particulars: cell homogenate, 3H-AEA 80 nM, 1 h at rt, average of results. On the procedure: A. Transfection of Cells with Human FAAH
as §1, with “Supercoiled human” for “Supercoiled rat”, “[…]” for “960 μF.”
as §2, §3

Bounds are passed on as bounds.

With `O=C(Nc1noc2ccccc12)N1CC(CCOc2cccc(Oc3ccc(Cl)cc3)c2)C1` [Example 43, 3-{2-[3-(4-Chloro-phenoxy)-phenoxy]-ethyl}-azetidine-1-carboxylic acid benzo[d]isoxazol-3-ylamide], the values for the 50% inhibitory concentration (IC50) in assay [1] and in assay [2] were 1 nM and 4 nM, respectively.
For `O=C(Nc1cnc2cccnn12)N1CC(CCOc2cccc(Oc3ccc(Cl)cc3)c2)C1` [Example 1, 3-{2-[3-(4-Chloro-phenoxy)-phenoxy]-ethyl}-azetidine-1-carboxylic acid imidazo[1,2-b]pyridazin-3-ylamide], the IC50 in assay [1] came to 4 nM; in assay [2], 5 nM.
On to `O=C(Nc1cccnc1)N1CC(COc2cccc(Oc3ccccc3)c2)C1` [Example 17, 3-(3-Phenoxy-phenoxymethyl)-azetidine-1-carboxylic acid pyridin-3-ylamide], for which the IC50 in assay [1] came out at 340 nM; in assay [2] it was 170 nM.
On the same counts, the results for `O=C(Nc1cnccc1Cl)N1CC(CCOc2cccc(Oc3ccc(Cl)cn3)c2)C1` [Example 48, 3-{2-[3-(5-Chloro-pyridin-2-yloxy)-phenoxy]-ethyl}-azetidine-1-carboxylic acid (4-chloro-pyridin-3-yl)-amide] are 5 nM and 1 nM.
On the same counts, the results for `O=C(Nc1cccnc1)N1CC(CCOc2ccc(Cl)c(Cl)c2)C1` [Example 34, 3-[2-(3,4-Dichloro-phenoxy)-ethyl]-azetidine-1-carboxylic acid pyridin-3-ylamide] are 54 nM and 30 nM.
On the same counts, the results for `O=C(Nc1cccnc1)N1CCC(CCc2cccc(Oc3ccc(F)cc3)c2)C1` (stereo not shown) [Example 79, 3-{2-[3-(4-Fluoro-phenoxy)-phenyl]-ethyl}-pyrrolidine-1-carboxylic acid pyridin-3-ylamide] are 48 nM and 58 nM.
`O=C(Nc1cccnc1)N1CCC(CCc2ccc3c(c2)OC(F)(F)O3)C1` (stereo not shown) [Example 77, 3-[2-(2,2-Difluoro-benzo[1,3]dioxol-5-yl)-ethyl]-pyrrolidine-1-carboxylic acid pyridin-3-ylamide]: the results for the IC50 in assay [1] and in assay [2] were 7000 nM and 5000 nM, respectively.
For `O=C(Nc1cccnc1)N1CC(COc2ccc3cccnc3c2)C1` [Example 14, 3-(Quinolin-7-yloxymethyl)-azetidine-1-carboxylic acid pyridin-3-ylamide], in that order: more than 10000 nM and more than 10000 nM.
For `O=C(Nc1cccnc1)N1CC(COc2ccc3c(c2)CCCC3)C1` [Example 13, 3-(5,6,7,8-Tetrahydro-naphthalen-2-yloxymethyl)-azetidine-1-carboxylic acid pyridin-3-ylamide], in that order: 1700 nM and 2500 nM.
For `O=C(Nc1ccc2nccn2c1)N1CC(CCOc2cccc(Oc3ccc(Cl)cc3)c2)C1` [Example 41, 3-{2-[3-(4-Chloro-phenoxy)-phenoxy]-ethyl}-azetidine-1-carboxylic acid imidazo[1,2-a]pyridin-6-ylamide], in that order: 1000 nM and 3000 nM.
For `O=C(Nc1cccnc1)N1CCC(COc2cccc(Oc3ccc(Cl)cc3)c2)C1` (stereo not shown) [Example 51, 3-{[3-(4-Chlorophenoxy)phenoxy]methyl}-N-pyridin-3-ylpyrrolidine-1-carboxamide], the IC50 stood at 62 nM in assay [1] and 200 nM in assay [2].
On the same counts, the results for `O=C(Nc1cncc2ccccc12)N1CC(CCOc2cccc(Oc3ccc(Cl)cc3)c2)C1` [Example 38, 3-{2-[3-(4-Chloro-phenoxy)-phenoxy]-ethyl}-azetidine-1-carboxylic acid isoquinolin-4-ylamide] are 5 nM and 27 nM.
On the same counts, the results for `O=C(Nc1cccnc1)N1CC(COc2ccc3c(c2)OCO3)C1` [Example 7, 3-(Benzo[1,3]dioxol-5-yloxymethyl)-azetidine-1-carboxylic acid pyridin-3-ylamide] are more than 10000 nM and more than 10000 nM.
As to `O=C(Nc1cccnc1)N1CC(CCOc2cccc(Oc3ccccc3)c2)C1` [Example 32, 3-[2-(3-Phenoxy-phenoxy)-ethyl]-azetidine-1-carboxylic acid pyridin-3-ylamide], the IC50 in assay [1] was 430 nM; in assay [2], 360 nM.
For `O=C(Nc1cnccc1Cl)N1CC(CCOCc2ccc(Cl)cc2)C1` [Example 65, 3-[2-(4-Chloro-benzyloxy)-ethyl]-azetidine-1-carboxylic acid (4-chloro-pyridin-3-yl)-amide], in that order: 739 nM and 275 nM.
On the same counts, the results for `O=C(Nc1cccnc1)N1CC(COc2cccc(Oc3ccc(OC(F)(F)F)cc3)c2)C1` [Example 25, 3-[3-(4-Trifluoromethoxy-phenoxy)-phenoxymethyl]-azetidine-1-carboxylic acid pyridin-3-ylamide] are 230 nM and 50 nM.
On the same counts, the results for `O=C(Nc1cccnc1)N1CC(COc2ccc(Oc3ccccc3)cc2)C1` [Example 16, 3-(4-Phenoxy-phenoxymethyl)-azetidine-1-carboxylic acid pyridin-3-ylamide] are more than 10000 nM and more than 10000 nM.
